{
  "source": "paper PMC9943811",
  "about": "(Diabetes Therapy, 2022)",
  "origin": "cited, not measured here",
  "conditions": "ref [19], [20]",
  "data": [
    {"smiles": "N[C@@H](CC(=O)N1CCn2c(nnc2C(F)(F)F)C1)Cc1cc(F)c(F)cc1F", "note": "[sitagliptin]", "values": [
      {"measurement": "terminal half-life", "result": "around 12 h"}
    ]}
  ]
}
